Like-named read-outs stand apart in the source and are kept apart here.
How the values were obtained:
[1] = test system: L 1210 murine leukemia cells; test: Cytotoxicity assay against L 1210 murine leukemia cells, 48 hours; assay type: cell-based; conditions: for IC50: Mus musculus, read-out: L1210 cell growth inhibition IC50; for L1210 normalized relative to MTX: number in parentheses
Description: (§1) A cytotoxicity assay was carried out for the same group of compounds against L 1210 and L 1210/R81 murine leukemia cells cultured for 48 hours in RPMI 1640 medium containing 10% fetal bovine serum, using the procedure of Mosman, J. Immunol. Meth., Vol. 65, 55-63 (1983).

[2] = test system: L 1210/R81 murine leukemia cells; test: Cytotoxicity assay against L 1210/R81 murine leukemia cells, 48 hours; assay type: cell-based; conditions: for IC50: Mus musculus, L1210 ( R81), read-out: L1210/R81 cell growth inhibition IC50; for L1210/R81 normalized relative to MTX: number in parentheses
Description: as §1

CEM lymphoblasts = test: Cell growth inhibition against human CEM lymphoblasts, 48 hours; assay type: cell-based; conditions: for IC50: Homo sapiens, CCRF-CEM, read-out: CEM cell growth inhibition IC50; for CEM normalized relative to MTX: number in parentheses
Description: (§2) In addition, four of the compounds were tested against human CEM and CEM/MTX lymphoblasts cultured fcr 48 hours in Dulbecco's modified Eagle's medium containing 10% fetal bovine serum.

CEM/MTX lymphoblasts = test: Cell growth inhibition against human CEM/MTX lymphoblasts, 48 hours; assay type: cell-based; conditions: for IC50: Homo sapiens, read-out: CEM/MTX cell growth inhibition IC50; for CEM/MTX normalized relative to MTX: number in parentheses
Description: as §2

cell growth in culture = conditions: result in words; Rosowsky et al. (1986); cited from earlier work
[3] = test system: dihydrofolate reductase (DHFR); conditions: result in words; Rosowsky et al. (1986); cited from earlier work
[4] = test system: folylpolyglutamate synthetase (FPGS); conditions: result in words; Rosowsky et al. (1986); cited from earlier work
SCC25 cells [5] = test: Growth inhibition of human squamous carcinoma cells SCC25; assay type: cell-based; conditions: SCC-25, 336 h, continuous exposure about two weeks
[6] = test system: L1210, L1210/R81, CEM and CEM/MTX cells; test: Cell growth inhibition of Table 2 (joint statement); assay type: cell-based, murine; human; conditions: comparison with the other compounds
Description: as §1
In addition, four of the compounds were tested against human CEM and CEM/MTX lymphoblasts cultured fcr 48 hours in Dulbecco's modified Eagle's medium containing 10% fetal bovine serum. The IC50 (μM) values, with normalized values relative to MTX given in parentheses, are reported in the last two columns of Table 2.

[7] = test system: parental SCC15 and SCC25 cells; test: Growth inhibition of parental SCC15 and SCC25 cells (joint statement); assay type: cell-based, human
SCC15/R1 cells [8] = test: Growth inhibition of MTX-resistant human squamous carcinoma cells SCC15/R1; assay type: cell-based; conditions: SCC-15, 336 h, continuous exposure about two weeks
SCC15 cells [9] = test: Growth inhibition of human squamous carcinoma cells SCC15; assay type: cell-based; conditions: SCC-15, 336 h, continuous exposure about two weeks
SCC25/R1 cells [10] = test: Growth inhibition of MTX-resistant human squamous carcinoma cells SCC25/R1; assay type: cell-based; conditions: SCC-25, 336 h, continuous exposure about two weeks
[11] = target: T1, DHFR (Dihydrofolate Reductase) from L 1210/R81 murine leukemia cells (Mus musculus, UniProt P00375); test: Inhibition of DHFR purified by MTX affinity chromatography from L 1210/R81 murine leukemia cells (spectrophotometric, 340 nm); assay type: biochemical; conditions: range of six separate experiments on different days (footnote a, Table 1)
T1 construct: endogenous in cells; host or cells: L1210/R81 murine leukemia cells
T1 sequence (P00375 1-187): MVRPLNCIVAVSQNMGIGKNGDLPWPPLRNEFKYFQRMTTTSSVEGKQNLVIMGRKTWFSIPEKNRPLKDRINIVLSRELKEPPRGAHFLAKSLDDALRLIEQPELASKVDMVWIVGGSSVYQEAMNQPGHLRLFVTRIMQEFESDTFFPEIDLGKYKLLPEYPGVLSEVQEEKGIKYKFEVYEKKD
Description: Inhibition of DHFR purified by MTX affinity chromatography from L 1210/R81 murine leukemia cells was determined. […] Certain of the compounds were also tested as inhibitors of partially purified FPGS from mouse liver.
IC50 concentrations (μM) were […]

SCC25/R1 cells [12] = conditions: taken from Rosowsky et al. (1985); cited from earlier work
mouse liver FPGS = conditions: footnote c, Table 1; see Moran et al.; cited from earlier work
SCC25 cells [13] = conditions: taken from Rosowsky et al. (1985); cited from earlier work
SCC15 cells [14] = conditions: taken from Rosowsky et al. (1985); cited from earlier work
SCC15/R1 cells [15] = conditions: taken from Rosowsky et al. (1985); cited from earlier work
[16] = test system: MTX-resistant SCC15/R1 and SCC25/R1 sublines; test: Growth inhibition of MTX-resistant SCC15/R1 and SCC25/R1 sublines (joint statement); assay type: cell-based, human
[17] = L1210, 48 hours, RPMI 1640, 10% fetal bovine serum
[18] = 48 hours, RPMI 1640, 10% fetal bovine serum
[19] = 48 hours, Dulbecco's modified Eagle's medium, 10% fetal bovine serum

Row | Structure (SMILES) | IC50 [1, 17] | L1210 normalized relative to MTX [1] | IC50 [2, 18] | L1210/R81 normalized relative to MTX [2] | IC50 (CEM lymphoblasts; [19]) | CEM normalized relative to MTX (CEM lymphoblasts) | IC50 (CEM/MTX lymphoblasts; [19]) | CEM/MTX normalized relative to MTX (CEM/MTX lymphoblasts) | IC50 ([2]; 48 h) | further results
1 | Nc1nc(N)c2nc(CNc3ccc(C(=O)N[C@@H](CCCNC(=O)c4ccc(Cl)cc4)C(=O)O)cc3)cnc2n1 [Compound 5] | 3.2 nM | 1.4 | 27000 nM | 7.4 | 270 nM | 0.12 | 1000 nM | 6.6 |  | 
2 | NCCC[C@H](NC(=O)c1ccc(NCc2cnc3nc(N)nc(N)c3n2)cc1)C(=O)O [Compound 1, N^α -(4-Amino-4-deoxypteroyl)-L-ornithine] |  |  |  |  |  |  |  |  | 32000 nM | IC50 ([1]; L1210, 48 h): 1300 nM; inhibitor of cell growth in culture (cell growth in culture): relatively inactive; inhibitor of dihydrofolate reductase [3]: potent inhibitor; inhibitor of folylpolyglutamate synthetase [4]: potent inhibitor
3 | Nc1nc(N)c2nc(CNc3ccc(C(=O)N[C@@H](CCCNC(=O)c4ccc(Cl)c(Cl)c4)C(=O)O)cc3)cnc2n1 [Compound 6] | 32 nM | 0.14 | 127000 nM | 1.6 | 7400 nM | 0.0043 | 10000 nM | 0.66 |  | 
4 | Nc1nc(N)c2nc(CNc3ccc(C(=O)N[C@@H](CCCNC(=O)c4ccccc4C(=O)O)C(=O)O)cc3)cnc2n1 [Compound 7, N^α -(4-Amino-4-deoxypteroyl)-N^67-hemi-phthaloyl-L-Ornithine] |  |  |  |  |  |  |  |  |  | IC50 ([1]; L1210, 48 h): 0.75 nM; IC50 (SCC25 cells [5]): 0.96 nM; activity shown in Table 2, result in words [6]: high activity; IC50 (CEM lymphoblasts; 48 h): 4.3 nM; more potent than MTX against the parental SCC15 and SCC25 cells ([7]; more potent than MTX): 10- to 30 fold; IC50 (SCC15/R1 cells [8]): 4 nM; IC50 (CEM/MTX lymphoblasts; 48 h): 420 nM; IC50 (SCC15 cells [9]): 1.1 nM; IC50 (SCC25/R1 cells [10]): 1.3 nM
5 | Nc1nc(N)c2nc(CNc3ccc(C(=O)N[C@@H](CCC(=O)O)C(=O)O)cc3)cnc2n1 [Aminopterin, reference compound] |  |  |  |  |  |  |  |  | 84000 nM | 
6 | Nc1nc(N)c2nc(CNc3ccc(C(=O)N[C@@H](CCCNC(=O)c4ccccc4)C(=O)O)cc3)cnc2n1 [Compound 4] | 0.89 nM | 5.2 | 17000 nM | 12 | 6.6 nM | 5.0 | 1100 nM | 6.0 |  | IC50 [11]: 0.56 to 1.5 nM
7 | CN(Cc1cnc2nc(N)nc(N)c2n1)c1ccc(C(=O)N[C@@H](CCC(=O)O)C(=O)O)cc1 [Methotrexate] |  |  |  |  |  |  |  |  | 200000 nM | IC50 (SCC25/R1 cells [12]): 150 nM; IC50 (CEM lymphoblasts; 48 h): 32 nM; IC50 (CEM/MTX lymphoblasts; 48 h): 6600 nM; substrate for mouse liver FPGS (mouse liver FPGS): substrates; IC50 (SCC25 cells [13]): 7.5 nM; IC50 (SCC15 cells [14]): 38 nM; IC50 (SCC15/R1 cells [15]): 580 nM
8 | CN(Cc1cnc2nc(N)nc(N)c2n1)c1ccc(C(=O)N[C@@H](CCC(=O)OC(C)(C)C)C(=O)O)cc1 [γ-t-butyl ester of MTX, γ-tert. -butyl ester of methotrexate] |  |  |  |  |  |  |  |  |  | IC50 (SCC25/R1 cells [12]): 780 nM; less potent than MTX against the parental SCC15 and SCC25 cells ([7]; less potent than MTX): at least 10 fold; IC50 (SCC25 cells [13]): 400 nM; IC50 (SCC15 cells [14]): 600 nM; IC50 (SCC15/R1 cells [15]): 1300 nM; less potent than MTX against the MTX-resistant SCC15/R1 and SCC25/R1 sublines [16]: at least 30 fold
9 | CC(=O)NCCC[C@H](NC(=O)c1ccc(NCc2cnc3nc(N)nc(N)c3n2)cc1)C(=O)O [Compound 2] | 17 nM | 0.27 | 81000 nM | 2.5 |  |  |  |  |  | 
